Reference: publication PMC12483202, “Pharmacokinetic profile of oral firocoxib in the koala (Phascolarctos cinereus)” (PLOS One, 2025)
Read-outs that look alike come from different tables or passages of the source.

Assays:
[1] = cited from earlier work
[2] = test system: osteoarthritis in horses; design: method as in PMID 36684818; details: cited from earlier work
[3] = test system: koalas; assay: Clinical observations, haematology and biochemistry after repeat dosing; format: in vivo, koala (Phascolarctos cinereus); details: for Phos: reference interval 0.87-2.47
Protocol: Samples were centrifuged at 1500 x g for 10 minutes, within 1 h of collection; the plasma was immediately stored at –80 °C and protected from light until drug quantification. […] Clinical observations for the presence of adverse effects in the animals treated included measurement of vital signs, appetite, body weight, faecal consistency and overall behaviour and mobility.

[4] = Non-specific binding to the filtration membrane (phosphate buffered saline); format: in vitro ADME; details: at a concentration of 250 ng/mL
Protocol: (§1) The same concentrations of firocoxib were added to phosphate buffered saline and underwent ultrafiltration to determine non-specific binding to the filtration membrane. Thereafter the corrected percentage of substrate binding to plasma proteins was calculated as: […]

[5] = cited from earlier work; remark: listed apart in the source
[6] = test system: urate crystal-induced synovitis in dogs; design: method as in ref 38 = [38]; 38 Dauteloup C , Pichou C , Beugnet F . Assessment of the efficacy of firocoxib and robenacoxib in an induced synovitis model of acute arthritis in dogs . International Journal of Applied Research in; details: cited from earlier work
[7] = cited from earlier work; remark: listed apart in the source
[8] = test system: equine ischaemic intestinal injury; design: method as in PMID 19645580; details: cited from earlier work
[9] = design: method as in ref [5] of S9 Table; details: Camels (5); IV 0.1 mg/kg; ref [5] of S9 Table; cited from earlier work
[10] = design: method as in ref [6] of S9 Table; details: Pigs (7); PO 4.0 mg/kg; ref [6] of S9 Table; cited from earlier work
[11] = design: method as in ref [4] of S9 Table; details: Rabbits (6); PO 3.74 -4.20 mg/kg; ref [4] of S9 Table; cited from earlier work
[12] = design: method as in ref [8] of S9 Table; details: Goats (10), ref [8] of S9 Table, cited from earlier work
[13] = Firocoxib binding to plasma proteins, ultrafiltration; format: in vitro ADME; details: pooled plasma, pH 7.4, firocoxib 500 ng/mL, corrected for non-specific binding, thawed frozen plasma, read-out: corrected percentage bound to plasma proteins (converted)
Protocol: The percentage of firocoxib bound to koala plasma proteins was determined using the ultrafiltration method using a modified protocol. As firocoxib plasma protein binding (PPB) has been reported in horses, archived horse plasma (obtained under The University of Sydney approved animal ethics protocol: 2015/736) was tested simultaneously alongside koala plasma to compare the percentage of firocoxib bound to equine plasma proteins. The total plasma protein concentration in the koala samples was determined using Vetscan® VS2 chemistry analyser (Comprehensive Diagnostic Profile), (Zoetis Australia Pty Ltd., Rhodes, NSW). Firocoxib dissolved in dimethyl sulfoxide (to reduce non-specific binding) at a concentration of 500 ng/mL, was added to 1 mL of thawed pooled blank koala or horse plasma, the pH was adjusted to 7.4, and then incubated in a water bath at 37 °C for 30 min. […] Both fractions were analysed by HPLC as described above. All samples were analysed as duplicates. The percentage of substrate binding to plasma proteins was calculated using the equation: […]
as §1

[14] = test system: equine plasma proteins; design: method as in PMID 17472652; details: radiolabelled firocoxib; cited from earlier work
[15] = design: method as in ref [9] of S9 Table; details: Rhinoceros (5); PO 0.1 mg/kg; ref [9] of S9 Table; cited from earlier work
[16] = test system: ovariohysterectomised cats; design: method as in PMID 27515266; details: 3 mg/kg/day, cited from earlier work
[17] = test system: elephant plasma proteins; design: method as in PMID 37428699, PMID 38453490; details: African and Asian elephants; rapid equilibrium dialysis; cited from earlier work
[18] = test system: cyclooxygenase-2; details: based on in vitro studies in other species; cited from earlier work
[19] = Horses (6), PO 0.1 mg/kg, ref [1] of S9 Table
[20] = Horses (12), IV 0.1 mg/kg, ref [3] of S9 Table
[21] = Horses (12), PO 0.1 mg/kg, ref [3] of S9 Table
[22] = Dogs (40), PO 5 mg/kg, ref [1] of S9 Table

For `CC1(C)OC(=O)C(OCC2CC2)=C1c1ccc(S(C)(=O)=O)cc1` [firocoxib], the ionizability ([1]; at physiological pH) is given as “low ionizability”, the “-log10 dissociation constant (pka)” value [1] is given as 19.69 and the “solubility in dimethyl sulfoxide” value [1] is given as “highly soluble”. For the same molecule, the solubility in water [1] was “insoluble”, the “efficacy for controlling pain and inflammation associated with osteoarthritis” value [2] was “good efficacy” and the “appetite, behaviour and mobility” value ([3]; in vivo) was “no change from normal appetite, behaviour and mobility”. For the same molecule, the body weight ([3]; in vivo) was “maintained stable body weight”, the Phos ([3]; koala K2, 72 h, after repeated dosing 5 mg/kg every 12 h) was 1.48 mmol/L and the Phos ([3]; koala K6, 72 h, after repeated dosing 5 mg/kg every 12 h) was 1.37 mmol/L. For the same molecule, the Na ([3]; koala K6, 72 h, after repeated dosing 5 mg/kg every 12 h, reference interval 132-143) was 139 mmol/L, the “non-specific binding of firocoxib” value [4] was 4.06% and the Cmax [5, 19] was 0.058 µg/mL. For the same molecule, the Tmax [5, 19] was 3.2 h, the t1/2 [5, 19] was 32.77 h and the Cmax [5, 20] was 0.21 µg/mL. The t1/2 [5, 20] was 34 h, the Cmax [5, 21] was 0.075 µg/mL and the Tmax [5, 21] was 3.9 h. The t1/2 [5, 21] was 30 h, the Absolute oral bioavailability ([5]; horses dosed at 0.1 mg/kg) was 79% and the Cl ([5]; horses) was 0.037 L/h/kg. The “Tmax (mean)” value ([5]; horses) was 3.2 h, the Vd ([5]; horses) was 1.7 L/kg and the plasma elimination half-life ([5]; horses) was 32.8 h. For the same molecule, the Cmax ([5]; horses, oral 0.1 mg/kg) was 0.058 µg/mL, the “peak vertical force and weight-bearing capacity” value [6] was “efficacy in improving the peak vertical force and weight-bearing capacity” and the t1/2 ([7]; Dogs (6), PO 5 mg/kg, ref [2] of S9 Table) was 6.5 h. The Cmax [7, 22] was 0.52 µg/mL, the Tmax [7, 22] was 1.25 h and the t1/2 [7, 22] was 5.9 h. The Tmax ([7]; dogs) was 1.25 h, the “plasma elimination half-life (mean)” value ([7]; dogs) was 5.90 h and the “mean Cmax” value ([7]; dogs, oral 5 mg/kg) was 0.52 µg/mL. The visceral analgesia ([8]; equine ischaemic intestinal injury) was “efficacious visceral analgesia”, the “mucosal barrier function recovery” value ([8]; firocoxib compared with flunixin meglumine) was “superior mucosal barrier function recovery” and the t1/2 [9] was 5.75 h. The Cmax [10] was 0.06 µg/mL, the Tmax [10] was 7.41 h and the t1/2 [10] was 24.075 h. For the same molecule, the Cmax [11] was 0.16 µg/mL, the Tmax [11] was 3.81 h and the t1/2 [11] was 9.12 h. For the same molecule, the t1/2 ([12]; IV 0.5 mg/kg) was 26.41 h, the Cmax ([12]; PO 0.5 mg/kg) was 0.139 µg/mL and the Tmax ([12]; PO 0.5 mg/kg) was 0.77 h. For the same molecule, the t1/2 ([12]; PO 0.5 mg/kg) was 21.51 h, the fraction unbound at 30 min, 500 ng/mL ([13]; horse plasma) was 0.147 and the fraction unbound at 30 min, 500 ng/mL ([13]; koala plasma) was 0.153. The “bound in horse plasma” value [14] was 97%, the Cmax [15] was 0.0157 µg/mL and the t1/2 [15] was 4.96 h. The postoperative analgesia ([16]; 1 h prior to induction of anaesthesia and at 24 and 48 h post-surgery) was “some analgesia”, the azotaemia ([16]; 72 h after surgery) was “two out of eight cats developed a reversible azotaemia” and the “binding to elephant plasma proteins” value [17] was 45%. The “target plasma concentration to inhibit 80% of cyclooxygenase-2 activity (IC80)” value [18] was “approximately 100 ng/mL”.
